Experimental data from patent US5220029A, “Synthetic proteolytic substrate” (Vitek Systems, Inc., priority 1990, dated 1993).
Where “and” joins values, the source holds several entries; their conditions need not be identical. Identical values can stand only once.

Assays:
trypsin [1] = test: Determination of kinetic constants for the trypsin catalyzed hydrolysis (continuous assay); format: biochemical; settings: triplicate
From the text: (§1) The invention may be more thoroughly understood by reference to the included examples which describe the synthesis of amides of the type RCO-MBTH (Examples 1-15) and a continuous enzyme assay (Example 16). A disconintuous assay is illustrated in Example 17. Example 18 is a determination of the kinetic catalytic constant (kc) and binding constant (Km) for trypsin-catalyzed hydrolysis of an RCO-MBTH substrate by the continuous assay method.
Determination of the Kinetic Constants for the Trypsin Catalyzed Hydrolysis of N-(N-t-butoxycarbonyl)-L-Arginyl 3-methyl benzothiazolinone hydrazone (continuous assay)
In a one-cm. cuvette were mixed 3.0 mL of 0.02M tris buffer, pH 7.8, containing 0.02M 3-dimethylamino benzoic acid (DMAB) 0.1 mL of 0.065M potassium ferricyanide, and 0.1 mL of substrate (Boc-ARG-MBTH). The reaction was initiated by the addition of 0.1 mL of trypsin (2.33×10^-4 M in 0.1M pyrophosphate buffer, pH 8.3). Eight concentrations of substrate, from 9.98×10^-4 M to 7.8×10^-6 M, were assayed in triplicate. The increase in absorption at 590 nm was monitored continuously and the initial rates were determined. Under the conditions of the assay, a molar absorptivity of 57,000 was used to determine the concentration of the chromogen (MBTH-DMAB) produced by the hydrolysis of substrate. Table I contains the date used to determine the binding and kinetic constants (Km, kc).

trypsin [2] = test: Continuous assay for trypsin (saturation kinetics), color development by DMAB/ferricyanide at 590 nm; format: biochemical; settings: 1 μg trypsin, 0.14M Tris pH 7.8, substrate 1.74×10^-3, 5.8×10^-4 and 3.9×10^-4 M in triplicate
From the text: as §1
Saturation kinetics for N-(N-benzyloxycarbonyl)glycyl-L-prolyl-L-arginyl 3-methyl-2-benzothiazolinone hydrazone with trypsin
A continuous assay for trypsin was performed, i.e., the oxidizing and coupling reagents for color development were included with the substrate in the reaction mixture so that color development may be monitored on a continuous basis with time. In this example the dye precursor is developed to a dye without destroying the enzymatic activity of the enzyme. The reaction was initiated by the addition of 0.1 mL of enzyme (10 μg/mL) to 0.9 mL of buffer solution containing substrate (Z-GLY-PRO-ARG-MBTH) and color developing reagents. […] The increases in absorbance at 590 nm were monitored continuously for 5 minutes and the initial rates determined. Using the molar absorptivity of 57,000 for the chromogen produced (MBTH-DMAB), the average rate of hydrolysis was calculated to be 4.43+0.1×10^-6 mol min^-1.

Row | Compound | 1/V (trypsin [1]; 1/s 100 M^-1) | 1/V (trypsin [1]; 1/s 200 M^-1) | 1/V (trypsin [1]; 1/s 401 M^-1) | 1/V (trypsin [1]; 1/s 802 M^-1) | 1/V (trypsin [1]; 1/s 1603 M^-1) | 1/V (trypsin [1]; 1/s 2305 M^-1) | 1/V (trypsin [1]; 1/s 6413 M^-1) | 1/V (trypsin [1]; 1/s 12826 M^-1) | average rate of hydrolysis (trypsin [2])
1 | Cn1c(=NNC(=O)[C@H](CCCNC(=N)N)NC(=O)OC(C)(C)C)sc2ccccc21 [Boc-ARG-MBTH, N-(N-t-butoxycarbonyl)-L-Arginyl 3-methyl benzothiazolinone hydrazone] | 0.000565 min/M and 0.000528 min/M and 0.000625 min/M | 0.000699 min/M and 0.000742 min/M | 0.000766 min/M and 0.00088 min/M and 0.000819 min/M | 0.001033 min/M and 0.00108 min/M and 0.001188 min/M | 0.001697 min/M and 0.001827 min/M | 0.002969 min/M and 0.003393 min/M | 0.005056 min/M and 0.00528 min/M | 0.009901 min/M and 0.009506 min/M | –
2 | Cn1c(=NNC(=O)[C@H](CCCNC(=N)N)NC(=O)[C@@H]2CCCN2C(=O)CNC(=O)OCc2ccccc2)sc2ccccc21 [Z-GLY-PRO-ARG-MBTH, N-(N-benzyloxycarbonyl)glycyl-L-prolyl-L-arginyl 3-methyl-2-benzothiazolinone hydrazone] | – | – | – | – | – | – | – | – | 4.43+0.1×10^-6 mol min^-1
